Source: patent US10913744B2, “LRRK2 inhibitors and methods of making and using the same” (Dana-Farber Cancer Institute, Inc., priority 2015, dated 2021)
Like-named read-outs stand apart in the source and are kept apart here.

Tests used:
EIF2AK3 = EIF2AK3 (Homo sapiens (Human), UniProt Q9NZJ5); experiment: Dundee profiling
PIP5K1C = PIP5K1C (Homo sapiens (Human), UniProt O60331); experiment: KinomeScan; assay type: binding; conditions: 1 uM
BTK [1] = biological target: T1, BTK (Homo sapiens (Human), UniProt Q06187); experiment: KinomeScan; assay type: binding; conditions: 1 uM
Target sequence in this assay (Q06187 whole entry, looked up): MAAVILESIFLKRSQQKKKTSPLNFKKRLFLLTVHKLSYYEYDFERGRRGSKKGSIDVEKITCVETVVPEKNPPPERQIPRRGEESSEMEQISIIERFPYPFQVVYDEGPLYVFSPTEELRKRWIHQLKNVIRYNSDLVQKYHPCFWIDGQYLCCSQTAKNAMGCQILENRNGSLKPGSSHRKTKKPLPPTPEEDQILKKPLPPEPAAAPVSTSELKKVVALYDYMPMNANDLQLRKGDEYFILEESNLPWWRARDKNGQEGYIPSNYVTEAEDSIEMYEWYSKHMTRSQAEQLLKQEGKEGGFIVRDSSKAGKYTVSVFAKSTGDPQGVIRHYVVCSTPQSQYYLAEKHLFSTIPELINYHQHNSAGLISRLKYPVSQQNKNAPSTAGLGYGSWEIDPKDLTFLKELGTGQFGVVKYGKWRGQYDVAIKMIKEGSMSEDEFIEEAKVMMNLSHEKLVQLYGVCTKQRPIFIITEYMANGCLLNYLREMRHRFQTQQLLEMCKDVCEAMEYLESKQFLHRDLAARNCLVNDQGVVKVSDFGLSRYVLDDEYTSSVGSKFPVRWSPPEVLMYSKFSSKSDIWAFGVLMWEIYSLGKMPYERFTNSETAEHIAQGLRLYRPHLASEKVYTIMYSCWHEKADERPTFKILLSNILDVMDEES

EPH-B4 = EPH-B4 (Homo sapiens (Human), UniProt P54760); experiment: Dundee profiling
p38-alpha = p38-alpha (Homo sapiens (Human), UniProt Q16539); experiment: KinomeScan; assay type: binding; conditions: 1 uM
PAK6 = PAK6 (Homo sapiens (Human), UniProt Q9NQU5); experiment: Dundee profiling
CDK2 = CDK2 (Homo sapiens (Human), UniProt P24941); experiment: KinomeScan; assay type: binding; conditions: 1 uM
Lck = Lck (Homo sapiens (Human), UniProt P06239); experiment: Dundee profiling
SIK2 = SIK2 (Homo sapiens (Human), UniProt Q9H0K1); experiment: Dundee profiling
BTK [2] = biological target: T1, BTK; experiment: Dundee profiling
Target sequence in this assay (Q06187 whole entry, looked up, species assumed): as the sequence (Q06187 whole entry, looked up) above

BRK = BRK (Homo sapiens (Human), UniProt Q13882); experiment: Dundee profiling
LZK = LZK (Homo sapiens (Human), UniProt O43283); experiment: KinomeScan; assay type: binding; conditions: 1 uM
wild-type GFP-LRRK2 = wild-type GFP-LRRK2 (Homo sapiens (Human), UniProt Q5S007); experiment: Ser910/Ser935 phosphorylation immunoblot in HEK293 cells; assay type: cell-based; conditions: 90 min
Method: (§1) FIG. 2A-2D show inhibition of LRRK2 by Compound 18. HEK293 cells stably expressing FIG. 2A: wild-type GFP-LRRK2, FIG. 2B: GFP-LRRK2[G2019S], FIG. 2C: GFP-LRRK2[G2019S+A2016T], and FIG. 2D: GFP-LRRK2[A2016T] were treated with dimethylsulfoxide (DMSO) or increasing concentrations of Compound 18 for 90 min (1 μM of LRRK2-IN-1 was used as a control). Cell lysates were subjected to immunoblotting for detection of LRRK2 phosphorylated at Ser910 and Ser935 and for total LRRK2.
(§2) HEK293 and Swiss 3T3 cells were cultured in DMEM (Dulbecco's Modified Eagle's medium) supplemented with 10% FBS (fetal bovine serum), 2 mM glutamine and 1× penicillin/streptomycin solution. HEK-293 T-Rex cell lines were cultured in DMEM supplemented with 10% (v/v) FBS and 2 mM glutamine, lx penicillin/streptomycin solution, 15 μg/ml blastocidin and 100 μg/ml hygromycin. T-Rex cultures were induced to express the indicated protein by inclusion of 0.1 μg/ml doxycycline in the culture medium for 24-48 hr. […] Protein concentrations were determined following centrifugation of the lysate at 16,000×g at 4° C. for 20 minutes using the Bradford method with BSA as the standard. […]
(§3) As there are no validated direct phosphorylation substrates of LRRK2, phosphorylation of Ser910 and Ser935, two residues whose phosphorylation is known to be dependent upon LRRK2 kinase activity, was monitored.

GFP-LRRK2[G2019S] = GFP-LRRK2[G2019S] (Homo sapiens (Human), UniProt Q5S007, G2019S); experiment: as above; assay type: cell-based; conditions: 90 min
Method: as §1, §2, §3

CDK8 = CDK8 (Homo sapiens (Human), UniProt P49336); experiment: KinomeScan; assay type: binding; conditions: 1 uM
HIPK3 = HIPK3 (Homo sapiens (Human), UniProt Q9H422); experiment: Dundee profiling
ROCK2 = ROCK2 (Homo sapiens (Human), UniProt O75116); experiment: Dundee profiling
TAO1 = TAO1 (Homo sapiens (Human), UniProt Q7L7X3); experiment: Dundee profiling
MET (M1250T) = MET (M1250T) (Homo sapiens (Human), UniProt P08581, M1250T); experiment: KinomeScan; assay type: binding; conditions: 1 uM
[3] = read-out: percent remaining enzymatic activity, I1, 1 μM
[4] = read-out: percent remaining enzymatic activity, I10

Chain of BRK (Q13882 whole entry, looked up, species assumed): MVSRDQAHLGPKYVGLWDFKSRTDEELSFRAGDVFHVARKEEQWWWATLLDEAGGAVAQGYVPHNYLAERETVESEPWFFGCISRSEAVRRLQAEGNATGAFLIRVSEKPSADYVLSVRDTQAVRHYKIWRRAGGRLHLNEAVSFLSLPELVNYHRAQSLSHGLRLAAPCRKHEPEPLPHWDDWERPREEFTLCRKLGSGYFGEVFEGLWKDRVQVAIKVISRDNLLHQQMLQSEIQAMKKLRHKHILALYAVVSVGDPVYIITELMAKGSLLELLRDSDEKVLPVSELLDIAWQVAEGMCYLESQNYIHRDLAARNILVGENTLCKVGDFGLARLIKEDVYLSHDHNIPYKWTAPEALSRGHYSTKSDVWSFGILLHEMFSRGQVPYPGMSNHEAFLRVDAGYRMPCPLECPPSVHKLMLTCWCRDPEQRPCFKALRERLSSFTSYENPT
Chain of SIK2 (Q9H0K1 whole entry, looked up, species assumed): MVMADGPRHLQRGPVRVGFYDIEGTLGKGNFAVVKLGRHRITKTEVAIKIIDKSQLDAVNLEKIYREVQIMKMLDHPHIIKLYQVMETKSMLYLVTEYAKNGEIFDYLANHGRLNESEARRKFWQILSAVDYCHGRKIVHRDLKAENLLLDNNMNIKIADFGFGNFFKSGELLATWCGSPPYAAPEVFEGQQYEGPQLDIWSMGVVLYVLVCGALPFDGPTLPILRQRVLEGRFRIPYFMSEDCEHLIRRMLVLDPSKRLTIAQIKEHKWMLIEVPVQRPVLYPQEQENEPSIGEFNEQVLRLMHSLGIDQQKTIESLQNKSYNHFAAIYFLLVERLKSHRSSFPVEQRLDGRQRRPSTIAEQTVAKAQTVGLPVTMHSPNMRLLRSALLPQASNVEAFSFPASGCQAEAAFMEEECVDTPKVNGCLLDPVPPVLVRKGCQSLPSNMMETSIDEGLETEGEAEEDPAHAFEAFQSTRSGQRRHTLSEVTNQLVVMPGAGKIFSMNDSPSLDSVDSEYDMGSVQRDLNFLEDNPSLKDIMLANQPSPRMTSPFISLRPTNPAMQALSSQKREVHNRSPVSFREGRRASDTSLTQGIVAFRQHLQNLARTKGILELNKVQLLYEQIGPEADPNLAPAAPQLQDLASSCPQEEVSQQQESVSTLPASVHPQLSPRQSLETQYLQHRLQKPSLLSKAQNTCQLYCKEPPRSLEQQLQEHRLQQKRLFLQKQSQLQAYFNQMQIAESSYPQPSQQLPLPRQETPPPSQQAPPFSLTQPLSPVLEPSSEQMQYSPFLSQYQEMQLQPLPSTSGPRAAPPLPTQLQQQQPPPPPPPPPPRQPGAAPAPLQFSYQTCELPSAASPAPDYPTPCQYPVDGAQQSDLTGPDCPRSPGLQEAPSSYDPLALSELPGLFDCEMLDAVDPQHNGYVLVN
Chain of ROCK2 (O75116 whole entry, looked up, species assumed): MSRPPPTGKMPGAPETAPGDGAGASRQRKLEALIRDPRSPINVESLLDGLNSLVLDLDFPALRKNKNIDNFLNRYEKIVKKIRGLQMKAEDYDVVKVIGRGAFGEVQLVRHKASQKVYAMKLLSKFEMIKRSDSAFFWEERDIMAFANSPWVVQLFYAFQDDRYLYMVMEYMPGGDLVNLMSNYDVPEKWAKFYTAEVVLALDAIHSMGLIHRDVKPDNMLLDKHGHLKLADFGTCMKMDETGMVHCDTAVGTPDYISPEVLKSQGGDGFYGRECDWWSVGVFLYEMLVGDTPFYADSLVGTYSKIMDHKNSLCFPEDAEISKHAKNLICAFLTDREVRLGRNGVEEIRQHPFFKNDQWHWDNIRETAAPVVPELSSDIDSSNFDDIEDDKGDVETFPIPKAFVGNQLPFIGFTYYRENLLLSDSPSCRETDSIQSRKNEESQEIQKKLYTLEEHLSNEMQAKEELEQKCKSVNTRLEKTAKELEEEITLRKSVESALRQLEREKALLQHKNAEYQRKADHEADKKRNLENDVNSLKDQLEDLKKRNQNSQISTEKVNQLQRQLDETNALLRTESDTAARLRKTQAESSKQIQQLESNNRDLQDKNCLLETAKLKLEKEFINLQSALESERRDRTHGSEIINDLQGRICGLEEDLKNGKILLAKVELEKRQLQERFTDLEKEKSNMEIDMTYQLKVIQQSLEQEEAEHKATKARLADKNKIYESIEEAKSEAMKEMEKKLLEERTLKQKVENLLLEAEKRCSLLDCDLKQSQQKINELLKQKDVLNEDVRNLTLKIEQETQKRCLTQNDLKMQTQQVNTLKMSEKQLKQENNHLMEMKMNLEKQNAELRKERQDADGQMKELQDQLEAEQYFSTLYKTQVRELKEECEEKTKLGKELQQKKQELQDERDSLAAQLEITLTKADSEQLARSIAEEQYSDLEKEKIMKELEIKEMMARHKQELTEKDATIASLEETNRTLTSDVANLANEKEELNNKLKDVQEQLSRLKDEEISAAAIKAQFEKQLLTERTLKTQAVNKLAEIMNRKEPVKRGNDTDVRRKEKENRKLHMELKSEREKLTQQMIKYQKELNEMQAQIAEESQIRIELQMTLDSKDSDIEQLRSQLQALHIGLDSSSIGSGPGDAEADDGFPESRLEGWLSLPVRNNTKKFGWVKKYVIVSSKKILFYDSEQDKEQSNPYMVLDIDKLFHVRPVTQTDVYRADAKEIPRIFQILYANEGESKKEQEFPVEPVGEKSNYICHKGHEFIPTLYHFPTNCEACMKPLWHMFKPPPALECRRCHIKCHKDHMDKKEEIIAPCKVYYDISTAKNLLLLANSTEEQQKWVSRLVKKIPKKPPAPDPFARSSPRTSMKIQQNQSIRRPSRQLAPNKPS
Chain of HIPK3 (Q9H422 whole entry, looked up, species assumed): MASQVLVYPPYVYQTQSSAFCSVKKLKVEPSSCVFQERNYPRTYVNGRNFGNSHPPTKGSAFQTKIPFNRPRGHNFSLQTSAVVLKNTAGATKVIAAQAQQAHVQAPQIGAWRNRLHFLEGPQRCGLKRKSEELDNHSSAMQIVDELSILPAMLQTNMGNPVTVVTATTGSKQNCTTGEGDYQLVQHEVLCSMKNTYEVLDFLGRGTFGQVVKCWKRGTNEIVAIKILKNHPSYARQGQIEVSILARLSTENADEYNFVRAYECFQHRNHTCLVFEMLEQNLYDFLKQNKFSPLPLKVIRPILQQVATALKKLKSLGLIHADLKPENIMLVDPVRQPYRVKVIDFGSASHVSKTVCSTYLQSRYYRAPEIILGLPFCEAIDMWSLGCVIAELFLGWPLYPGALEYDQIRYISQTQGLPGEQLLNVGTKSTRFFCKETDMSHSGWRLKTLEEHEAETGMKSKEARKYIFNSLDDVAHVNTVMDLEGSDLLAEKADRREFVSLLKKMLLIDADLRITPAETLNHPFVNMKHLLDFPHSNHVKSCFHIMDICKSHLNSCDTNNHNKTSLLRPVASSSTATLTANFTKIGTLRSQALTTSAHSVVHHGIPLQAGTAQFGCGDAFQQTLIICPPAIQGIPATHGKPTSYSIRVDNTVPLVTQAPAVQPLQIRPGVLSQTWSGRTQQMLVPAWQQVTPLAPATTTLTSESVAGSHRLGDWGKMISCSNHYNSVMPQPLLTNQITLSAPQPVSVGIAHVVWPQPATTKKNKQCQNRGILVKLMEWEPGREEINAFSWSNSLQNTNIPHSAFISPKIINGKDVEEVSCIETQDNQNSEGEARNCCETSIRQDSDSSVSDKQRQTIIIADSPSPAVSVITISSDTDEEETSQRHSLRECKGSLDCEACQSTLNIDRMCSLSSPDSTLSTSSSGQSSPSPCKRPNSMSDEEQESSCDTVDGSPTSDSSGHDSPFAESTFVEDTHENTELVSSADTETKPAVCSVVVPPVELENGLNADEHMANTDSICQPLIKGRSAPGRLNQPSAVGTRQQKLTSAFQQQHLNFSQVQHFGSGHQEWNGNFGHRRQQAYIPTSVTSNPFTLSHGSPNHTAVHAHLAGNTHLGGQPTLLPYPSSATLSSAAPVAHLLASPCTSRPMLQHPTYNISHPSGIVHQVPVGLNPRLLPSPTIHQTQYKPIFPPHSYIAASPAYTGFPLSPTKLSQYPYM
Chain of p38-alpha (Q16539 whole entry): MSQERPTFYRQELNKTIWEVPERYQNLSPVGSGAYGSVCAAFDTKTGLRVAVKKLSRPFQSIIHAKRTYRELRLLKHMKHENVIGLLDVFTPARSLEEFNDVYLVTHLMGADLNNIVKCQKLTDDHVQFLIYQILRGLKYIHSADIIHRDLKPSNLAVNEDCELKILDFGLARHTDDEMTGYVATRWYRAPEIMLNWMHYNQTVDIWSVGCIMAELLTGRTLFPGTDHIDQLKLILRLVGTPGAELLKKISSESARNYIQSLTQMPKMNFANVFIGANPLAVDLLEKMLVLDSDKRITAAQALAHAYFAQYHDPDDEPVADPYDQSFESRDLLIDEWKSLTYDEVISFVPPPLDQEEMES

CNc1nc(Nc2ccc(C(=O)N3CCOCC3)cc2OC)nc2[nH]cc(Cl)c12 [Compound 18, (4-((5-chloro-4-(methylamino)-7H-pyrrolo[2,3-d]pyrimidin-2-yl)amino)-3-methoxyphenyl)(morpholino)methanone]
remaining activity at 1 µM (EIF2AK3; [3]): 102%
remaining activity at 1 µM (EIF2AK3; [4]): 79%
KinomeScan value (PIP5K1C): 100
KinomeScan value (BTK [1]): 100
remaining activity at 1 µM (EPH-B4; [3]): 80%
remaining activity at 1 µM (EPH-B4; [4]): 86%
KinomeScan value (p38-alpha): 96
remaining activity at 1 µM (PAK6; [3]): 102%
remaining activity at 1 µM (PAK6; [4]): 105%
KinomeScan value (CDK2): 95
remaining activity at 1 µM (Lck; [3]): 97%
remaining activity at 1 µM (Lck; [4]): 111%
remaining activity at 1 µM (SIK2; [3]): 109%
remaining activity at 1 µM (SIK2; [4]): 92%
percent remaining enzymatic activity (BTK [2]; I10): 126%
remaining activity at 1 µM (BTK [2]; read-out: percent remaining enzymatic activity): 116%
remaining activity at 1 µM (BRK; [3]): 62%
remaining activity at 1 µM (BRK; [4]): 19%
KinomeScan value (LZK): 92
concentration giving substantial dephosphorylation of Ser910 and Ser935 (wild-type GFP-LRRK2): approximately 0.3
concentration giving substantial dephosphorylation of Ser910 and Ser935 (GFP-LRRK2[G2019S]): approximately 0.3
KinomeScan value (CDK8): 74
remaining activity at 1 µM (HIPK3; [3]): 106%
remaining activity at 1 µM (HIPK3; [4]): 93%
remaining activity at 1 µM (ROCK2; [3]): 113%
remaining activity at 1 µM (ROCK2; [4]): 101%
remaining activity at 1 µM (TAO1; [3]): 113%
remaining activity at 1 µM (TAO1; [4]): 100%
KinomeScan value (MET (M1250T)): 80
